Results as given in patent US20230118497A1, “PYRAZOLE-CONTAINING POLYCYCLIC DERIVATIVE INHIBITOR, PREPARATION METHOD THEREFOR AND APPLICATION THEREOF” (Shanghai Hansoh Biomedical Co., Ltd., priority 2019, published 2023).
pIC50: −log10 of the molar value.

Columns and labels:
[1] = Pharmacokinetic assay in rats; type: in vivo; conditions: male, rat, po, SD rats, p.o. 5 mg/kg, plasma, 0.5% CMC-Na (1% Tween 80); for AUC(0-t): read-out: Area under curve AUC0-t; for MRT inf: read-out: Average residence time MRT0-∞; for half-life: read-out: Half life t1/2 (converted); for Tmax: read-out: Peak time tmax; for Cmax: read-out: Plasma concentration Cmax
Experimental: Test Example 4. Pharmacokinetic Assay in Rats
SD rats were used as test animals. The pharmacokinetic behavior of the compounds of Examples was studied in rat body (plasma) by orally administration at a dose of 5 mg/kg.
Male SD rats (3 rats per group), purchased from Shanghai Jiesijie Laboratory Animal Co., LTD, with Certificate No.: SCXK (Shanghai) 2013-0006 N0.311620400001794.
5 g of hydroxyethyl cellulose (HEC, CMC-Na, viscosity: 800-1200 Cps) was weighed and dissolved in 1000 mL of purified water, followed by addition of 10 g of Tween80.
After an overnight fast, male SD rats (3 rats per group) were administered p.o. with the test compound at a dose of 5 mg/kg and a volume of 10 mL/kg.
0.2 mL of blood was taken from the jugular vein of the rat before administration and at 0, 0.5, 1, 2, 4, 6, 8 and 24 hours after administration. The samples were stored in EDTA-K2 tubes, and centrifuged for 6 minutes at 4° C., 6000 rpm to separate the plasma. The plasma samples were stored at −80° C.
1) 160 μL of acetonitrile was added to 40 μL of the plasma sample for precipitation, and then the mixture was centrifuged at 3500×g for 5 to 20 minutes.
2) After the above process, 100 μL of the supernatant was taken to analyze the concentration of the test compound by LC/MS/MS.
2.7 Liquid Chromatography Analysis • Liquid chromatography condition: Shimadzu LC-20AD pump • Mass spectrometry condition: AB Sciex API 4000 mass spectrometer • Chromatographic column: phenomenex Gemiu 5 um C18 50×4.6 mm • Mobile phase: Eluent A was 0.1% formic acid in water, and Eluent B was acetonitrile • Flow rate: 0.8 mL/min • Elution time: 0-4.0 minutes, the eluent is as follows:
The main parameters of pharmacokinetics were calculated by WinNonlin 8.2.

[2] = Metabolic stability in liver microsome (human); type: in vitro ADME; conditions: human liver microsome 0.5 mg/mL, compound 1 μM; for half-life at 1 μM: liver microsomes; for half-life at 1 μM / t1/2: NADPH/UDPGA
Experimental: Test Example 5. Assay of Metabolic Stability in Liver Microsome
The objective of the experiment is to determine the stability of the compounds of the Examples in liver microsome of mouse, rat, dog and human.
Formulation of the working solution of the compound: The stock solution of the compound was added to phosphate buffer, and the final concentration was 20 μM.
Liver microsome was diluted with 100 mM phosphate buffer to obtain a final concentration of 0.625 mg/mL.
NADPH (reduced nicotinamide adenine dinucleotide phosphate) and UDPGA (uridine diphosphate glucuronic acid) were weighed respectively, followed by addition of 100 mM phosphate buffer. The final concentrations were 20 mM.
1 mg of Alamethicin was weighed, to which 200 μL of DMSO was added to obtain a 5 mg/mL solution. The solution was diluted with phosphate buffer to obtain a final concentration of 50 μg/mL.
2.5 Formulation of the reaction stop solution Stop solution: Cold acetonitrile containing 100 ng/mL labetalol hydrochloride and 400 ng/mL tolbutamide as internal standards.
400 μL of the prepared liver microsome, 25 μL of the working solution of the compound and 25 μL of Alamethicin were added to a 96-well plate successively, which was then pre-incubated at 37° C. for 10 min. 50 μL of the prepared NADPH/UDPGA was added to initiate the reaction, and the plate was incubated at 37° C. The total volume of the reaction system was 500 μL. The final contents of the components were as follows: […]

[3] = Plasma protein binding rate (dog); type: in vitro ADME; conditions: 37° C. 6 h
Experimental: (§1) Test Example 6. Assay of Plasma Protein Binding Rate
(§2) The objective of the experiment is to determine the plasma protein binding of the compounds of the Examples in plasma.
(§3) The compound of the Example was formulated into 1 mM solution A with DMSO;
(§4) The solution A was added to the plasma solution to obtain 5 μM solution B;
(§5) 1) 200 μL of solution B was added to the inside of the membrane;
(§6) 2) […] of PBS was added to the outside of the membrane;
(§7) 3) Incubation in a water bath at 37° C. for 6 h;
(§8) 4) The sample was diluted and analyzed by mass spectrometry.

[4] = Plasma protein binding rate (human); type: in vitro ADME; conditions: 37° C. 6 h
Experimental: as §1, §2, §3, §4, §5, §6, §7, §8

[5] = target: T1, CYP450 enzyme isoform 1A2 (Homo sapiens, UniProt P05177); assay: CYP enzyme single-point inhibition assay, 1A2; type: in vitro ADME; conditions: human liver microsome, single-point method
T1 construct: single-point method using human liver microsome incubation system; from tissue; host or cells: human liver microsomes
T1 sequence (P05177 1-516): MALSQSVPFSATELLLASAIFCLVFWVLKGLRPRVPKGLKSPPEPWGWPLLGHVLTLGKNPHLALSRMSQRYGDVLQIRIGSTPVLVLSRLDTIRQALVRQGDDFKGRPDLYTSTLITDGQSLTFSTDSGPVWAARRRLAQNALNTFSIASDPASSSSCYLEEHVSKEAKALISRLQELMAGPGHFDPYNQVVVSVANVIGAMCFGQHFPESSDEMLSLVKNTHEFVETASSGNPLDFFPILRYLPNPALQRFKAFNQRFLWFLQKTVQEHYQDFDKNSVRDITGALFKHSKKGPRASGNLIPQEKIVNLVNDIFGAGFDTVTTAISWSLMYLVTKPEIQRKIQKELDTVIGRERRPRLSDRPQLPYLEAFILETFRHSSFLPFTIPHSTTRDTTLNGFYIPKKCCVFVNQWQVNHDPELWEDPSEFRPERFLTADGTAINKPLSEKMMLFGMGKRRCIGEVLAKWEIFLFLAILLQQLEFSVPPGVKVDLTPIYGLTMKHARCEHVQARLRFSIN
Experimental: Test Example 7. CYP Enzyme Single-Point Inhibition Assay
The inhibition of the compounds on CYP450 enzyme isoformwas rapidly predicted by single-point method using human liver microsome incubation system.
2.5 mM NADPH: 4.165 mg of NADPH (reduced nicotinamide adenine dinucleotide phosphate) was weighed, followed by addition of 100 mM phosphate buffer to 2 mL. 0.25 mg/mL microsome solution: 4 mL of 100 mM phosphate buffer was added to 50 μL of 20 mg/mL microsome solution and mixed well.
The test compound of the Example was weighed, diluted to 10 mM with DMSO and then to 100 μM with 100 mM phosphate buffer.
1. 40 μL of liver microsome, 10 μL of substrate and 10 μL of the test compound were added to a 96-well plate and pre-incubated for 3 min.
2. 40 μL of NADPH was added.
3. 300 μL of acetonitrile stop solution containing internal standard was added at 20 min.
4. The sample was centrifuged and injected.

Compound | AUC(0-t) [1] [ng·h/mL] | MRT inf [1] [h] | half-life [1] [h] | Tmax [1] [h] | Cmax [1] [ng/mL] | Remaining (%, 60 min) [2] [%] | half-life at 1 μM [2] [h] | fraction unbound at 6 h, 5 μM [3] | fraction unbound at 6 h, 5 μM [4] | pIC50 [5] | t1/2 [2]
O=C(Cn1c(=O)c2ccc(C(F)(F)F)nc2n2nccc12)Nc1ccc(F)cn1 [Example 78, N-(5-Fluoropyridin-2-yl)-2-(5-oxo-8-(trifluoromethyl)pyrazolo[1,5-a]pyrido[3,2-e]pyrimidin-4(5H)-yl)acetamide] | 6810 | 3.7 | 1.7 | 2 | 1220 | 97.5 | 14.7 | 0.147 | 0.103 | < 4.00 | 
O=C(Cn1c(=O)c2ccc(C(F)(F)F)nc2n2nc(Br)cc12)Nc1ccc(F)cn1 [Example 61-A, 2-(2-bromo-5-oxo-8-(trifluoromethyl)pyrazolo[1,5-a]pyrido[3,2-e]pyrimidin-4(5H)-yl)-N-(5-fluoropyridin-2-yl)acetamide] | 12000 | 5.8 | 8 | 2 | 1550 | 100.4 |  | 0.037 | 0.016 | 4.14 | ∞
CCc1cc2n(CC(=O)Nc3ccc(F)cn3)c(=O)c3ccc(C(F)(F)F)nc3n2n1 [Example 34, 2-(2-Ethyl-5-oxo-8-(trifluoromethyl)pyrazolo[1,5-a]pyrido[3,2-e]pyrimidin-4(5H)-yl)-N-(5-fluoropyridin-2-yl)acetamide] | 5780 | 6.2 | 3.5 | 4 | 904 | 113.9 |  | 0.032 | 0.015 | 4.60 | ∞
N#Cc1cnn2c3nc(C(F)(F)F)ccc3c(=O)n(CC(=O)Nc3ccc(F)cn3)c12 [Example 80, 2-(3-Cyano-5-oxo-8-(trifluoromethyl)pyrazolo[1,5-a]pyrido[3,2-e]pyrimidin-4(5H)-yl)-N-(5-fluoropyridin-2-yl)acetamide] | 21300 | 13.6 | 11.3 | 4 | 2190 |  |  | 0.135 | 0.135 |  | 
N#Cc1cc2n(CC(=O)Nc3ccc(F)cn3)c(=O)c3ccc(C(F)(F)F)nc3n2n1 [Example 68, 2-(2-Cyano-5-oxo-8-(trifluoromethyl)pyrazolo[1,5-a]pyrido[3,2-e]pyrimidin-4(5H)-yl)-N-(5-fluoropyridin-2-yl)acetamide] | 9850 | 3.5 | 1.8 | 4 | 1880 | 101.2 | 23.4 | 0.084 | 0.066 | < 4.00 | 
